We go through eight compounds from US10239880B2, “Cyclopenta[d]pyrimidines and substituted cyclopenta[d]pyrimidines as antitubulin and microtubule targeting agents, monocyclic pyrimidines as tubulin inhibitors, and pyrrolopyrimidines as targeted antifolates and tubulin and multiple receptor tyrosine kinase inhibition and antitumor agents” (Duquesne University of the Holy Spirit, priority 2015, dated 2019).

Data set [1] concerns MDA-MB-231 xenograft. Kind of data set: MDA-MB-231 xenograft trial.
Data set [2] deals with A431.
Data set [3] has as its system NCI/ADR resistant tumor model. The experiment in a line: NCI/ADR-RES xenograft trial (resistant tumor model). To be noted: day 11, AG165 75 mg/kg. The class given is in vivo, mice. From the text:
AG165 in MDA-MB-435 xenograph model:

For data set [4], the target named is PDGFR-β (Homo sapiens, UniProt P09619). The experiment in a line: Kinase inhibition, whole-cell assay, PDGFR-β. The format is cell-based. To be noted: Table 1; IC50 ± SD; read-out: Kinase inhibition IC50 [whole-cell assays] PDGFR-β.
PDGFR-β, sequence (P09619 33-1106, species assumed): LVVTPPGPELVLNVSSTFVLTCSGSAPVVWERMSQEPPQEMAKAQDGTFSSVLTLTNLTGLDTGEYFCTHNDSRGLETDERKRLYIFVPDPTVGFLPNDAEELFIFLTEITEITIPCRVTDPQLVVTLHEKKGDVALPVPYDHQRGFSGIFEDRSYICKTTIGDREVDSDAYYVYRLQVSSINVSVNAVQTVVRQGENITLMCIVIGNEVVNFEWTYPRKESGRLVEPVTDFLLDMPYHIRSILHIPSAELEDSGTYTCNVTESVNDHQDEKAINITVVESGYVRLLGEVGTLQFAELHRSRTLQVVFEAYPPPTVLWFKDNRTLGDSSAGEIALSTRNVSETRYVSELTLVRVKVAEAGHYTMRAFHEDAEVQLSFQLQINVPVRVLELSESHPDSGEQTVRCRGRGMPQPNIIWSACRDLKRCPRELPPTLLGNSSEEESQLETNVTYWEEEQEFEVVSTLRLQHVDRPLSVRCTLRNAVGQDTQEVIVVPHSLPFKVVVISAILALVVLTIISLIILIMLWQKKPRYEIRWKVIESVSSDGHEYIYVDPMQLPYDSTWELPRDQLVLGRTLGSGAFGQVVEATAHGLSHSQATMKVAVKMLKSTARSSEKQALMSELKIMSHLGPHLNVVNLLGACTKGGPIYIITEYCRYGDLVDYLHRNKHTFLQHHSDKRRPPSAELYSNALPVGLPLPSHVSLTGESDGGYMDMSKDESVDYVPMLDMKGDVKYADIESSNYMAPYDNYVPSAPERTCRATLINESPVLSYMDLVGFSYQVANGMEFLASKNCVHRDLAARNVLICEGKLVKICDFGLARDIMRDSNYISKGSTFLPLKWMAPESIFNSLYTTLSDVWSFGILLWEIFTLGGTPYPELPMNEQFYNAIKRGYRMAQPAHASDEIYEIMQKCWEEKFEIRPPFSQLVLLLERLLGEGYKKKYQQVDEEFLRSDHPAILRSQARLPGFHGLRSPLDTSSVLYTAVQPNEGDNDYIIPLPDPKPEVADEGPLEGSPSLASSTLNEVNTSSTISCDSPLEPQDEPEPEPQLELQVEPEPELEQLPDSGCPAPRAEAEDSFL
In data set [5] the target is EGFR (Homo sapiens, UniProt P00533). The experiment in a line: Kinase inhibition, whole-cell assay, EGFR. As to conditions: Table 1; IC50 ± SD; read-out: Kinase inhibition IC50 [whole-cell assays] EGFR. The format is cell-based.
EGFR, sequence (P00533 25-1210, species assumed): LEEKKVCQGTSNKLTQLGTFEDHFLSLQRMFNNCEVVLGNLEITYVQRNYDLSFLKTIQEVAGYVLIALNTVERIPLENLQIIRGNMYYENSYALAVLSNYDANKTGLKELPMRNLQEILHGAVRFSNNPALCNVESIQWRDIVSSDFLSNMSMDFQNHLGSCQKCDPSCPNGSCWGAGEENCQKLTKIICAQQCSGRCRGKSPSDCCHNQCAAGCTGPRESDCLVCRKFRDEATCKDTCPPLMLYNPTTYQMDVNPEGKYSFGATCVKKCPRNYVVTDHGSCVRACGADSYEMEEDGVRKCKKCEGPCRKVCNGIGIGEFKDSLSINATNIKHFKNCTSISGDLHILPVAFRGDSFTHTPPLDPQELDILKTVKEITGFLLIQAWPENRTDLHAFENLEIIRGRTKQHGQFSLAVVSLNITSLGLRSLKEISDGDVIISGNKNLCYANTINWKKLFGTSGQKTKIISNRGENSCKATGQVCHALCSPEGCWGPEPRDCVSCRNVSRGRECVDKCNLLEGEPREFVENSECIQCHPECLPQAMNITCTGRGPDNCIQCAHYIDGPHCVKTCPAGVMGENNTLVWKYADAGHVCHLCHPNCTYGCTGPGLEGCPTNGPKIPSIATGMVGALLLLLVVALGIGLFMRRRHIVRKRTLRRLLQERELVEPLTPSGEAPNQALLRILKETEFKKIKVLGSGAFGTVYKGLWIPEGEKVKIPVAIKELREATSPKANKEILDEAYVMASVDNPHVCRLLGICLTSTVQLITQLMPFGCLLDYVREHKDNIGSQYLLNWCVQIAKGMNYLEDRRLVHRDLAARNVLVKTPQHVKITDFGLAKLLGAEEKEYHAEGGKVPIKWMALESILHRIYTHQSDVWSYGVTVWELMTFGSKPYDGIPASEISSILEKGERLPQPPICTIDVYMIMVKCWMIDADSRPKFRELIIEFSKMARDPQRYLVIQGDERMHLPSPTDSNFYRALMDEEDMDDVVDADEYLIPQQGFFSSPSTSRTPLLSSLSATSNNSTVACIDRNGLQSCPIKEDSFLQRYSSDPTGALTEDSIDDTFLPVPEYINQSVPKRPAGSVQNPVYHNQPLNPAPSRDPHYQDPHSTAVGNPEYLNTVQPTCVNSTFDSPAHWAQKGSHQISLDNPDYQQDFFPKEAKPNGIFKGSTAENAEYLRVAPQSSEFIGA
In data set [6] the test system is MDA-MB-435 cancer cells. Kind of data set: Antiproliferative effect in MDA-MB-435 cancer cells (SRB assay). As to conditions: Table 2, read-out: MDA-MB-435 IC50. The class given is cell-based. (The SRB assay estimates cell density from bound dye.)
Data set [7] has as its system A-10 cells. The experiment in a line: Microtubule depolymerization, cell-based phenotypic assay in A-10 cells.
In data set [8] the test system is MDA-MB-435 xenograft. Kind of data set: MDA-MB-435 xenograft trial. To be noted: for adverse effects / toxicity in xenograft trial: cumulative dosing; for antitumor effects: MDA-MB-435 xenograft.
Data set [9] has as its system D4 (FRβ). The experiment in a line: Proliferation inhibition, FRβ-expressing D4 cells. The format is cell-based.
The test system of data set [10] is KB (RFC/FRα/PCFT). Kind of data set: Growth inhibition of KB tumor cells. The format is cell-based, human. The procedure: Cell proliferation was assayed with CellTiter-Blue™ with a fluorescent plate reader.
In data set [11] the test system is RT16 (FRα). The experiment in a line: Proliferation inhibition, FRα-expressing RT16 cells. The class given is cell-based, Chinese hamster. From the text:
(§1) AGF215, AGF234 and AGF263 were compared to AGF23 as inhibitors of proliferation of engineered Chinese hamster ovary (CHO) cells expressing human PCFT (R2/PCFT4), FRα (RT16), or RFC (PC43-10).

In data set [12] the test system is PC43-10 (RFC). The experiment in a line: Proliferation inhibition, RFC-expressing PC43-10 cells. The format is cell-based, Chinese hamster. To be noted: Table 11.
Description: as §1

The test system of data set [13] is Pgp expressing SK-OV-3 MDR1-6-6. Kind of data set: Antiproliferative activity, Pgp expressing SK-OV-3 MDR1-6-6. As to conditions: Homo sapiens. The class given is cell-based.
Data set [14] deals with purified tubulin. The experiment in a line: Inhibition of tubulin assembly (Section II). To be noted: Table 5; Section II compounds; read-out: Inhibition of tubulin assembly IC50 ± SD. The format is biochemical. The procedure: The effects of 3, 4, 6, 7 and 9 on the polymerization of purified tubulin were evaluated (Table 5). This allows a study of the direct interaction of these compounds with their intracellular target. The ability of these compounds to bind to the colchicine site on tubulin was evaluated by measuring inhibition of [^3H]colchicine binding to tubulin.

Data set [15] has as its system Parental HeLa. Kind of data set: Antiproliferative activity, parental HeLa. The format is cell-based. As to conditions: Homo sapiens, Table 7, read-out: IC50 ± SD Parental HeLa. From the text:
(§2) Another clinically relevant drug resistance mechanism of tubulin-targeting agents is the overexpression of the βIII isotype of tubulin.

The subject of data set [16] is Parental SK-OV-3. The experiment in a line: Antiproliferative activity, parental SK-OV-3. The class given is cell-based. To be noted: Homo sapiens, Table 6, read-out: IC50 ± SD Parental SK-OV-3.
Data set [17] concerns P-gp Overexpressing NCI/ADR-RES. Kind of data set: Antiproliferative effect, P-gp overexpressing NCI/ADR-RES (SRB assay). As to conditions: Homo sapiens, read-out: IC50 ± SD P-gp Overexpressing NCI/ADR-RES.
Data set [18] has as its system Parental OVCAR-8. Kind of data set: Antiproliferative effect, parental OVCAR-8 (SRB assay). The class given is cell-based. To be noted: Homo sapiens, Table 10, n = 3, read-out: IC50 ± SD Parental OVCAR-8.
Data set [19] has as its system tubulin (colchicine site). Kind of data set: Inhibition of [3H]colchicine binding to tubulin (Section III). To be noted: 5 μM; Section III compounds.
Data set [20] has as its system β-III overexpressing HeLa. Kind of data set: Antiproliferative activity, β-III overexpressing HeLa. The class given is cell-based. As to conditions: Homo sapiens, HeLa; Table 7; read-out: IC50 ± SD β-III overexpressing HeLa.
Description: as §2

Data set [21] can be described thus: Metabolite identification of 3 with human liver microsomes by LC/MS/MS. The class given is in vitro ADME. From the text:
Compound 3 (Table 4), the para-methylthiophenyl substituted cyclopenta[d]pyrimidne, was designed to decrease the possible demethylation. […] Thus, the methylsulfinyl analog 4 (Table 4) and the methylsulfonyl analog 5 (Table 4) were also synthesized to determine their antiproliferative potencies. […] The electron donating, para-methylamino moiety of 8 (Table 1) and the para-dimethylamino moiety of 9 (Table 4) were designed as isosteric replacements of the O-methoxy moiety. According to the literature,^7 8 should be the major metabolite of 9. […] Compound 13 (Table 4), replaced the phenyl ring with a cyclohexyl ring to determine the importance of π-stacking interaction of the aniline ring. The variations proposed of compounds 10-13 would also serve as structural means to decrease the O-demethylation. […] Similarly, 9 could also function as a potential long acting agent, since the metabolites of both 3 and 9 are anticipated to be potent compounds against tumor cells. Section II Compounds Chemistry:
FIG. 7a) HPLC spectra of 3 incubated with human liver microsomes at 0 and 60 min. Metabolites M1-M5 and parent 3 were illustrated on the spectra. FIG. 7b) MS and MS/MS spectrum of 3. FIG. 7c) MS and MS/MS spectrum of M1 (compound 5). FIG. 7d) MS and MS/MS spectrum of M2 (compound 4). FIG. 7e) Fragmentation of M1 and M2 (MS/MS 239.1340).
On the technique in general: Liver microsomes are a subcellular fraction often used to study metabolism.

Where [22] appears, read: IP 75 mg/kg, listed as AG 165, 75 mg/kg.
[23] abbreviates: Table 11, read-out: IC50 FRβ D4.
The mark [24] stands for this setting: with folic acid (+FA), read-out: IC50 FRβ D4 (+FA).
The mark [25] stands for this setting: Table 11, read-out: IC50 RFC/FRα/PCFT KB.
Setting [26] is: with folic acid (+FA), read-out: IC50 RFC/FRα/PCFT KB (+FA).
Where [27] appears, read: with folic acid (+FA), read-out: IC50 FRα RT16 (+FA).

Each structure is given as a SMILES string. “Also recorded” adds a separate entry of the source. Like-named read-outs stand apart in the source and are kept apart here.

Take `CCCn1ccc2nc(C)nc(N(C)c3ccc(OC)cc3)c21.Cl` [3•HCl]: the antitumor effects result was “statistically significant antitumor effects comparable to paclitaxel” in data set [1] (MDA-MB-231 xenograft, 3.HCl 75 mg/kg IP, paclitaxel 10 mg/kg IP); “statistically significant antitumor effects (p<0.001)” in data set [8] (IP 75 mg/kg, 75 mg/kg); “highly statistically significant (p<0.001) antitumor effects” in data set [8] (setting [22]). For the same compound, the tumors vs control entry in data set [1] (days 10 and 15, 75 mg/kg, p<0.01 and p<0.0001) is listed as “significantly smaller”; in data set [8] (days 9, 11 and 15, 75 mg/kg, p<0.01 days 9 and 11, p<0.0001 day 15) it was “significantly smaller”. The IC50 in data set [2] is 107 ± 18 nM; in data set [4] it was > 200 nM; in [5], 89.3 ± 9.2 nM; in data set [6], 8.8 ± 3.4 nM. The “tumor volume vs control treated mice” value in [3] (p=0.0003) is “significantly smaller”. Moreover, the “tumor volume vs PTX (10 mg/kg) treated mice” value in [3] (p=0.0333) was “significantly smaller”. In addition, in data set [7] (Table 2, read-out: Microtubule depolymerization EC50), the EC50 came out at 20 nM. In data set [8] (Day 15, IP 75 mg/kg), the “final average tumor mass compared to the vehicle” value is “statistically significant (p<0.001) lower final average tumor mass”. Further, the mouse weight change entry in data set [8] (IP 75 mg/kg, compared to the vehicle) is listed as “recoverable weight loss”. The “adverse effects / toxicity in xenograft trial” value in data set [8] (IP 75 mg/kg, 75 mg/kg) is “did not induce any noticeable adverse effects or toxicities; also recorded: no apparent toxicity”; in [8] (setting [22]) it was “no evidence of effects on either central or peripheral nervous system”. Also, in [8] (IP 75 mg/kg, nude mice), the “tumor growth during the trial” value was “inhibited tumor growth”.
Turning to `Nc1nc2[nH]c(CCCOc3ccc(C(=O)N[C@@H](CCC(=O)O)C(=O)O)cc3)cc2c(=O)[nH]1` [AGF215], the IC50 was 3.8 nM in data set [9] (setting [23]); > 1000 nM in [9] (setting [24]); 1.54 nM in [10] (setting [25]); 767 nM in data set [10] (setting [26]); > 1000 nM in [11] (setting [27]); > 1000 nM in data set [12]. Also, the “IC50 RFC PC43-10” value in data set [12] was “inactive”.
As for `Nc1nc2[nH]c(CCCNc3ccc(C(=O)N[C@@H](CCC(=O)O)C(=O)O)cc3)cc2c(=O)[nH]1` [AGF234], the IC50 was 0.84 nM in [9] (setting [23]); 316 nM in data set [9] (setting [24]); 0.74 nM in [10] (setting [25]); 938 nM in data set [10] (setting [26]); 1.4 nM in [11] (Table 11, read-out: IC50 FRα RT16); 136 nM in data set [11] (setting [27]). The IC50 in data set [12] was determined as 670 nM. Also, the “IC50 RFC PC43-10” value in data set [12] is reported as “low level of activity”.
Consider `COc1ccc(/C=C\c2cc(OC)c(OC)c(OC)c2)cc1O` [CA-4, combretastatin A-4], for which the IC50 was 6.6 ± 1.3 nM in data set [13] (SK-OV-3, read-out: IC50 ± SD Pgp expressing SK-OV-3 MDR1-6-6); […] in data set [14]; 4.7 ± 0.2 nM in data set [15]; 3.47 ± 0.6 nM in data set [6] (Homo sapiens, MDA-MB-435); […] in [16]; 9 ± 2 nM in data set [17]. Also, the IC50 in [18] is 6 ± 0.7 nM. For the same compound, in [7] (Rattus norvegicus, A10, Table 2, read-out: Microtubule depolymerization EC50), the EC50 was found to be 13.1 nM. Further, the “Inhibition of colchicine binding (% inhibition ± SD)” value in data set [19] is 97%.
As for `CSc1ccc(N(C)c2nc(C)nc3c2CCC3)cc1` [Compound 3], the IC50 in data set [13] (SK-OV-3, Table 6, read-out: IC50 ± SD Pgp expressing SK-OV-3 MDR1-6-6) stood at 9.28 ± 0.42 nM; in data set [15], 6.95 ± 0.53 nM; in data set [20], 5.26 ± 0.78 nM; in data set [16], 7.2 ± 0.6 nM; in [17] it was 210 ± 10 nM; in data set [18] it was 500 ± 100 nM. Moreover, in data set [7] (Rattus norvegicus, A10, read-out: EC50 in A-10 cells (Concentration that causes 50% tubulin loss in A-10 cells), Table 4, Section II compounds), the EC50 amounted to 12.6 nM.
In the case of `Cc1nc2c(c(N(C)c3ccc([S+](C)[O-])cc3)n1)CCC2` (centres unmarked) [Section II compound 4], in data set [21], the “MS Peak Area in 60 min sample, HPLC area” value was 2,199,500.
On to `Cc1nc2c(c(N(C)c3ccc(S(C)(=O)=O)cc3)n1)CCC2` [Section II compound 5], for which the “MS Peak Area in 60 min sample, HPLC area” value in data set [21] (Section II compound 3 incubated with human liver microsomes, 60 min) was 98,900. For the same compound, in data set [21] (Section II compound 3 incubated with human liver microsomes, 60 min, parent and metabolites), the “MS Peak Area in 60 min sample, Percentage (%)” value was found to be 2.2%.
Consider `CC(=O)O[C@H]1C(=O)[C@@]2(C)[C@H]([C@H](OC(=O)c3ccccc3)[C@]3(O)C[C@H](OC(=O)[C@H](O)[C@@H](NC(=O)c4ccccc4)c4ccccc4)C(C)=C1C3(C)C)[C@]1(OC(C)=O)CO[C@@H]1C[C@@H]2O` [paclitaxel], for which the IC50 in data set [17] was 5000 nM; in [18], 10 nM.
